EPA's ToxRefDB 2

How the values were obtained:
mouse [1] = conditions: Carcinogenicity; b6c3f1; Oral; Feed; dose end: 103 week; group: systemic; systemic / in life observation / body weight / body weight + systemic / pathology microscopic / kidney / mineralization + systemic / …
rat [2] = conditions: Carcinogenicity, fischer, Oral, Feed, dose end: 104 week, group: systemic
rat [3] = conditions: Subchronic oral toxicity in rodents, fischer, Feed, dose end: 13 week, group: systemic
mouse [4] = conditions: Subchronic oral toxicity in rodents, b6c3f1, Feed, dose end: 13 week, group: systemic, systemic / pathology microscopic / kidney / mineralization + systemic / in life observation / body weight / body weight gain
rat [5] = conditions: Subchronic oral toxicity in rodents, fischer, Water, dose end: 14 week, group: systemic
mouse [6] = conditions: Subchronic oral toxicity in rodents, b6c3f1, Water, dose end: 14 week, group: systemic
rat [7] = conditions: Subchronic oral toxicity in rodents, Feed, dose end: 90 day, group: systemic
dog [8] = conditions: Chronic toxicity, beagle, Oral, Feed, dose end: 52 week, group: systemic
rat [9] = conditions: Developmental neurotoxicity range-finding study; sprague dawley; Oral; Feed; dose end: 21 PND; group: cannot be grouped; systemic / in life observation / body weight / body weight + systemic / in life observation / body weight / body weight gain + systemic / in…
dog [10] = conditions: Subchronic oral toxicity in nonrodent, beagle, Feed, dose end: 90 day, group: systemic, systemic / in life observation / clinical signs / defecation (diarrhea) + systemic / in life observation / clinical signs / emesis + …
mouse [11] = conditions: Carcinogenicity; cd1; Oral; Feed; dose end: 104 week; group: systemic; systemic / in life observation / clinical signs / hyperactivity
rat [12] = conditions: Prenatal developmental toxicity study, other, Oral, Gavage/Intubation, dose end: 15 GD
rat [13] = conditions: Combined chronic toxicity/carcinogenicity, other, Oral, Feed, dose end: 27 month, group: systemic
mouse [14] = conditions: Combined chronic toxicity/carcinogenicity; other; Oral; Feed; dose end: 24 month; group: systemic; systemic / organ weight / thyroid gland / absolute + systemic / organ weight / thyroid gland / relative to body weight + systemic / organ …
rat [15] = conditions: Multigenerational reproductive toxicity study, other, Oral, Feed, dose end: 3 generation
rat [16] = conditions: Combined chronic toxicity/carcinogenicity, other, Oral, Feed, dose end: 27 month, group: systemic; remark: listed apart in the source
rat [17] = conditions: Sub-acute repeat dose toxicity, other, Oral, Feed, dose end: 28 day, group: systemic
rabbit = conditions: Sub-acute dermal toxicity, new zealand white, Topical, dose end: 28 day, group: systemic, systemic / in life observation / body weight / body weight + systemic / in life observation / food consumption / food consumption + systemic…
[18] = systemic / in life observation / body weight / body weight + systemic / pathology microscopic / kidney / hyperplasia + systemic / pathology …
[19] = systemic / pathology microscopic / kidney / hyperplasia + systemic / pathology microscopic / urinary bladder / hyperplasia + systemic / …
[20] = systemic / pathology microscopic / kidney / mineralization
[21] = systemic / hematology / erythrocyte (rbc) count differential / erythrocyte (rbc) + systemic / hematology / hematocrit (hct) / hematocrit (…
[22] = systemic / hematology / hematocrit (hct) / hematocrit (hct) + systemic / hematology / hemoglobin (hgb) / hemoglobin (hgb) + systemic / organ…
[23] = systemic / organ weight / kidney / absolute + systemic / organ weight / kidney / relative to body weight + systemic / pathology microscopic…
[24] = systemic / organ weight / liver / absolute + systemic / organ weight / liver / relative to body weight + systemic / pathology microscopic / …
[25] = systemic / clinical chemistry / urea nitrogen / urea + systemic / clinical chemistry / alkaline phosphatase (alp/alk) / alkaline phosphatase…
[26] = systemic / in life observation / clinical signs / tremors + systemic / clinical chemistry / glucose / glucose + systemic / in life …
[27] = group: developmental, developmental / developmental malformation / bone / unossified
[28] = group: maternal, reproductive / reproductive performance / aborted / aborted + systemic / in life observation / body weight / body weight gain + systemic / …
[29] = systemic / in life observation / body weight / body weight + systemic / in life observation / food consumption / food consumption
[30] = systemic / in life observation / body weight / body weight + systemic / in life observation / food consumption / food consumption + systemic…
[31] = group: parental, systemic / in life observation / body weight / body weight + systemic / organ weight / brain / relative to body weight
[32] = group: parental, systemic / in life observation / body weight / body weight + systemic / pathology gross / full gross necropsy / hyperemia + systemic / …
[33] = group: reproductive, reproductive / reproductive performance / fertility / fertility + reproductive / reproductive performance / mating / mating + reproductive…
[34] = group: reproductive, reproductive / reproductive performance / mating / mating + reproductive / reproductive performance / pregnancy / pregnancy
[35] = systemic / in life observation / body weight / body weight
[36] = systemic / in life observation / body weight / body weight + systemic / pathology microscopic / testes / interstitial cell tumor benign + …
[37] = systemic / organ weight / liver / absolute + systemic / organ weight / liver / relative to brain weight
[38] = systemic / organ weight / liver / absolute + systemic / organ weight / liver / relative to brain weight + systemic / organ weight / liver / …

Compound: NCCCCCCCCCCC(=O)O [11-Aminoundecanoic acid]
- LEL (mouse [1]): 1120 mg/kg/day
- LOAEL (mouse [1]): 1120 mg/kg/day
- NEL (mouse [1]): < 1120 mg/kg/day
- NOAEL (mouse [1]): < 1120 mg/kg/day
- LOAEL (rat [2]; [18]): 750 mg/kg/day
- NOAEL (rat [2]; [18]): 375 mg/kg/day
- LEL (rat [2]; [19]): 375 mg/kg/day
- NEL (rat [2]; [19]): < 375 mg/kg/day
- LOAEL (rat [3]; systemic / pathology microscopic / kidney / hyperplasia + systemic / in life observation / body weight / body weight gain): 900 mg/kg/day
- NOAEL (rat [3]; systemic / pathology microscopic / kidney / hyperplasia + systemic / pathology microscopic / kidney / mineralization): 750 mg/kg/day
- LEL (rat [3]; [20]): 450 mg/kg/day
- NEL (rat [3]; [20]): < 450 mg/kg/day
- LEL (mouse [4]): 2250 mg/kg/day
- LOAEL (mouse [4]): 2250 mg/kg/day
- NEL (mouse [4]): 1800 mg/kg/day
- NOAEL (mouse [4]): 1800 mg/kg/day

Compound: CC(O)CCl (stereo not given) [1-Chloro-2-propanol]
- LOAEL (rat [5]; [21]): 100 mg/kg/day
- NOAEL (rat [5]; [21]): 35 mg/kg/day
- LEL (rat [5]; [22]): 5 mg/kg/day
- NEL (rat [5]; [22]): < 5 mg/kg/day
- LOAEL (mouse [6]; [23]): 340 mg/kg/day
- NOAEL (mouse [6]; [23]): 170 mg/kg/day
- LEL (mouse [6]; [24]): 7 mg/kg/day
- NEL (mouse [6]; [24]): < 7 mg/kg/day

Compound: CC1(C)C(C(=O)OC(C#N)c2cccc(Oc3ccccc3)c2)C1(C)C (stereo not given) [Fenpropathrin]
- LOAEL (rat [7]; systemic / clinical chemistry / alkaline phosphatase (alp/alk) / alkaline phosphatase (alp/alk) + systemic / hematology / blood clotting / …): 30 mg/kg/day
- LEL (rat [7]; systemic / clinical chemistry / urea nitrogen / urea): 5 mg/kg/day
- NEL (rat [7]; [25]): 1.5 mg/kg/day
- NOAEL (rat [7]; [25]): 15 mg/kg/day
- LOAEL (dog [8]; systemic / in life observation / clinical signs / tremors): 6.25 mg/kg/day
- LEL (dog [8]; systemic / in life observation / clinical signs / tremors + systemic / clinical chemistry / glucose / glucose): 6.25 mg/kg/day
- NEL (dog [8]; [26]): 2.5 mg/kg/day
- NOAEL (dog [8]; [26]): 2.5 mg/kg/day
- LEL (rat [9]): 27 mg/kg/day
- LOAEL (rat [9]): 27 mg/kg/day
- NEL (rat [9]): 13 mg/kg/day
- NOAEL (rat [9]): 13 mg/kg/day
- LEL (dog [10]): 6.25 mg/kg/day
- LOAEL (dog [10]): 6.25 mg/kg/day
- NEL (dog [10]): < 6.25 mg/kg/day
- NOAEL (dog [10]): < 6.25 mg/kg/day
- LEL (mouse [11]): 65.2 mg/kg/day
- LOAEL (mouse [11]): > 65.2 mg/kg/day
- NEL (mouse [11]): 16.2 mg/kg/day
- NOAEL (mouse [11]): ≥ 65.2 mg/kg/day

Compound: CCNc1nc(Cl)nc(NC(C)(C)C)n1 [Terbuthylazine]
- LEL (rat [12]; [27]): 5 mg/kg/day
- LOAEL (rat [12]; [27]): 5 mg/kg/day
- NEL (rat [12]; [27]): 1 mg/kg/day
- NOAEL (rat [12]; [27]): 1 mg/kg/day
- LEL (rat [12]; [28]): 30 mg/kg/day
- LOAEL (rat [12]; [28]): 30 mg/kg/day
- NEL (rat [12]; [28]): 5 mg/kg/day
- NOAEL (rat [12]; [28]): 5 mg/kg/day
- NEL (rat [13]; [29]): 0.36 mg/kg/day
- NOAEL (rat [13]; [29]): 0.36 mg/kg/day
- LEL (rat [13]; [30]): 1.6 mg/kg/day
- LOAEL (rat [13]; [30]): 1.6 mg/kg/day
- LEL (mouse [14]): 3.22 mg/kg/day
- LOAEL (mouse [14]): 3.22 mg/kg/day
- NEL (mouse [14]): < 3.22 mg/kg/day
- NOAEL (mouse [14]): < 3.22 mg/kg/day
- LEL (rat [15]; [31]): 2.5 mg/kg/day
- NEL (rat [15]; [31]): < 2.5 mg/kg/day
- LOAEL (rat [15]; [32]): > 5 mg/kg/day
- NOAEL (rat [15]; [32]): ≥ 5 mg/kg/day
- LOAEL (rat [15]; [33]): > 5 mg/kg/day
- NOAEL (rat [15]; [33]): ≥ 5 mg/kg/day
- LEL (rat [15]; [34]): 2.5 mg/kg/day
- NEL (rat [15]; [34]): < 2.5 mg/kg/day
- LOAEL (rat [16]; [35]): 1.24 mg/kg/day
- NOAEL (rat [16]; [35]): < 1.24 mg/kg/day
- LEL (rat [16]; [36]): 1.24 mg/kg/day
- NEL (rat [16]; [36]): < 1.24 mg/kg/day
- LOAEL (rat [17]; [37]): 2.28 mg/kg/day
- NOAEL (rat [17]; [37]): < 2.28 mg/kg/day
- LEL (rat [17]; [38]): 2.28 mg/kg/day
- NEL (rat [17]; [38]): < 2.28 mg/kg/day
- LEL (rabbit): 1 mg/kg/day
- LOAEL (rabbit): 1 mg/kg/day
- NEL (rabbit): < 1 mg/kg/day
- NOAEL (rabbit): < 1 mg/kg/day
